The text below walks through data of patent EP0933350A1, “Tricyclic retinoids, methods for their production and use” (LIGAND PHARMACEUTICALS INCORPORATED, priority 1994, dated 1996).

The target in one assay is T1, RARγ (Homo sapiens, UniProt P13631).
T1 sequence (P13631 1-454): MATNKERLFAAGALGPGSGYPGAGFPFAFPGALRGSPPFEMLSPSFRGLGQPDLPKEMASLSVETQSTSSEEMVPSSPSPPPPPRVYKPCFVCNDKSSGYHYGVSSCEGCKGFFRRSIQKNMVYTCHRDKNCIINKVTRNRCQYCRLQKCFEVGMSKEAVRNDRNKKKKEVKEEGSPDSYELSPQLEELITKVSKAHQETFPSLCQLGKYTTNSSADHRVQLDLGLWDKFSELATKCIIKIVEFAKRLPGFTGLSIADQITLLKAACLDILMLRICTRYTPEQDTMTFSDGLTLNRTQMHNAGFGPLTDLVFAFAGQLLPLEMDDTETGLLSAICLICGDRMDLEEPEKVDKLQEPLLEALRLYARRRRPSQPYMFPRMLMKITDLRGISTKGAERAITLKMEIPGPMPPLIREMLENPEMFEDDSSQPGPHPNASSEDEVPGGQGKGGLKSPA
The assay is described as follows: competitive binding of tritiated retinoids to retinoid receptors. Conditions: competition with tritiated retinoid, Cheng-Prussof equation.

Assay [1] deals with ME 180 cell line. The assay is described as follows: incorporation of 3H-thymidine (antiproliferative). In kind it is cell-based. Conditions: Homo sapiens, 96 hours, radiolabeled thymidine incorporation, read-out: TdR IC50. Background: Incorporation of labelled thymidine or its analogues reports DNA synthesis.
A further assay concerns TPA induction of ODC. Briefly: ornithine decarboxylase (ODC) assay: inhibition of TPA induction of ODC. In kind it is cell-based. Particulars: concentration required to inhibit the TPA induction of ODC by 80 percent.
The target in the next assay is T2, RXRγ (Mus musculus, UniProt P28705).
T2 sequence (P28705 1-463): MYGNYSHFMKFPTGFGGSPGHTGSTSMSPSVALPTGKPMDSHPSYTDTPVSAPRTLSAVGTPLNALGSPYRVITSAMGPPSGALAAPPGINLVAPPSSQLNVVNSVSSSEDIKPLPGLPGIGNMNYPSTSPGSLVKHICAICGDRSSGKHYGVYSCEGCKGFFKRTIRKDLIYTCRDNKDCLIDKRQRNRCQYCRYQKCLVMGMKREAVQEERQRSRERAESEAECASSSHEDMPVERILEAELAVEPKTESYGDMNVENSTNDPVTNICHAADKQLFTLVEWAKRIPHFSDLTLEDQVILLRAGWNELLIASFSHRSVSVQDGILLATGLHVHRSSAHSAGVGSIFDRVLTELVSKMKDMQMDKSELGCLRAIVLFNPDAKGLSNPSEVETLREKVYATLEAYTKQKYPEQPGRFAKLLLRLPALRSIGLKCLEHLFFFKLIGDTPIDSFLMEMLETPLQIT
The assay is described as follows: competitive binding of tritiated retinoids to retinoid receptors. Particulars: competition with tritiated retinoid, Cheng-Prussof equation.

Assay [2] deals with AML-193 cell line. Briefly: viability (tetrazolium dye, mitochondrial function). Format: cell-based. Particulars: Homo sapiens, 96 hours, read-out: MTS IC50.
In assay [3] the target is T3, RXRα (Homo sapiens, UniProt P19793).
T3 sequence (P19793 1-462): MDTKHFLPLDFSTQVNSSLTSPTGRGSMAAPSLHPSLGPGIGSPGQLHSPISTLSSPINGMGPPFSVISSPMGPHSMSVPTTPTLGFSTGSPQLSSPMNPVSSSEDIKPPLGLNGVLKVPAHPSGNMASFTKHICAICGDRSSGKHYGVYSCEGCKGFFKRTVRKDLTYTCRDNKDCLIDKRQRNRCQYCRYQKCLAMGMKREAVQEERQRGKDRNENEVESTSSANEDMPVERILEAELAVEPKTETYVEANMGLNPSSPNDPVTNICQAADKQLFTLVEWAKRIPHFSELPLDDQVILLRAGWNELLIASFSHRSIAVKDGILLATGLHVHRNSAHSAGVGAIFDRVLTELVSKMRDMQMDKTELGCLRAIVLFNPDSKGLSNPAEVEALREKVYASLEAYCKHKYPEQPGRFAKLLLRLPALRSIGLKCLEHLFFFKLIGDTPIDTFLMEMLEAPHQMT
The assay is described as follows: competitive binding of tritiated retinoids to retinoid receptors. Conditions: competition with tritiated retinoid, Cheng-Prussof equation.

The next assay deals with T4, RARβ (Homo sapiens, UniProt P10826).
T4 sequence (P10826 1-448 isoform P10826-2): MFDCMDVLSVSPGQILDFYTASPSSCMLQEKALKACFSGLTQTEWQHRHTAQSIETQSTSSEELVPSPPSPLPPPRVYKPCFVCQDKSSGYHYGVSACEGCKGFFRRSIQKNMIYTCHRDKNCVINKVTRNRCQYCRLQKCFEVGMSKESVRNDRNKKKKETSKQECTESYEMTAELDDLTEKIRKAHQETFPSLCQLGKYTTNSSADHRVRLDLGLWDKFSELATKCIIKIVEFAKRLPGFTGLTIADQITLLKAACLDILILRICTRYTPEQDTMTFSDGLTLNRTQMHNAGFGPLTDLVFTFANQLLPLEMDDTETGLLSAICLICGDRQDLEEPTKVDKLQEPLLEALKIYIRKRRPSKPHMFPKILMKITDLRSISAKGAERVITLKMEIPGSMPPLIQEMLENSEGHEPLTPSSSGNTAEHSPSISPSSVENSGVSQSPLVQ
Briefly: co-transfection assay (RAR/RXR agonist activity, luciferase reporter in CV-1 cells). Format: cell-based. Particulars: potency = EC50, agonist, 40 hours, read-out: RARβ Pot.

The subject of assay [4] is ME 180 cell line. Briefly: viability (tetrazolium dye, mitochondrial function). In kind it is cell-based. Particulars: Homo sapiens, 96 hours, read-out: MTS IC50.
Assay [5] relates to RPMI 8226 cell line. The description is as above. Particulars: Homo sapiens, 96 hours, read-out: MTS IC50. Format: cell-based.
Assay [6] deals with T3, RXRα. The assay is described as follows: co-transfection assay (RAR/RXR agonist activity, luciferase reporter in CV-1 cells). In kind it is cell-based. Particulars: read-out: RXRα Pot. For orientation: A reporter such as luciferase makes a cellular process visible.
The subject of assay [7] is RPMI 8226 cell line. The assay is described as follows: incorporation of 3H-thymidine (antiproliferative). In kind it is cell-based. Particulars: Homo sapiens, 96 hours, radiolabeled thymidine incorporation, read-out: TdR IC50.
For assay [8], the system named is AML-193 cell line. The assay is described as follows: incorporation of 3H-thymidine (antiproliferative). Particulars: Homo sapiens, 96 h, read-out: TdR IC50 (nM).

One may read the Kd as the constant that tells how readily two partners part at equilibrium. Low values mean a tighter complex, high ones a looser complex. A word on the IC50: it is the midpoint of a concentration-inhibition curve. Broadly, the IC80 is the point of the concentration-response curve where the effect stands at 80%. As for `CC(/C=C/C=C1/CCCc2cc3c(cc21)C(C)(C)CCC3(C)C)=C\C(=O)O` [Compound 101b, (2E,4E)-3-Methyl-6-[(Z)-3,4,5,6,7,8-hexahydro-5,5,8,8-tetramethyl-2H-anthracen-1-ylidene]hexa-2,4-dienoic acid], the Kd at RARγ was found to be 541 nM; at RXRγ, 48 nM; at RXRα [3], 34 nM. Also, the IC50 with ME 180 cell line [1] is 8 nM; in the assay on AML-193 cell line [2] it was 1000 nM; in the assay on ME 180 cell line [4] it was 75 nM; in the assay on RPMI 8226 cell line [5], 100 nM; in the assay on RPMI 8226 cell line [7], 6 nM; in the assay on AML-193 cell line [8], 37 nM. The same molecule displayed an IC80 with TPA induction of ODC of 0.78 nM. Moreover, the EC50 at RARβ stood at 8 nM; at RXRα [6], 35 nM.
In the case of `CC(/C=C/C=C1\CCCc2cc3c(cc21)C(C)(C)CCC3(C)C)=C\C(=O)O` [Compound 109b, (2E,4E)-3-Methyl-6-[(E)-3,4,5,6,7,8-hexahydro-5,5,8,8-tetramethyl-2H-anthracen-1-ylidene]hexa-2,4-dienoic acid], the values for the Kd on RARγ, at RXRγ and on RXRα [3] were 279 nM, 382 nM and 340 nM, respectively. Moreover, the IC50 in the assay with ME 180 cell line [1] amounted to 5 nM; in the assay on AML-193 cell line [2] it was 1000 nM; with ME 180 cell line [4], 100 nM; with RPMI 8226 cell line [5] it was 10 nM; in the assay with RPMI 8226 cell line [7] it was 0.05 nM; with AML-193 cell line [8], 500 nM. This molecule also came in with an IC80 in the assay on TPA induction of ODC of 0.08 nM. Moreover, the EC50 at RARβ was 3 nM; at RXRα [6], 2020 nM.
For the molecule `CC(/C=C/C=C1\CCOc2cc3c(cc21)C(C)(C)CCC3(C)C)=C\C(=O)O` [Compound 119b, (2E,4E)-3-Methyl-6-[(E)-2,3,6,7,8,9-hexahydro-6,6,9,9-tetramethylbenzo[g]chromen-4-ylidene]hexa-2,4-dienoic acid], the Kd on RARγ amounted to 87 nM; at RXRγ, 398 nM; on RXRα [3], 246 nM. For the same molecule, the IC50 was found to be 0.6 nM in the assay with ME 180 cell line [1]; 1000 nM in the assay on AML-193 cell line [2]; 2 nM with ME 180 cell line [4]; 2.6 nM with RPMI 8226 cell line [5]; 0.5 nM in the assay with RPMI 8226 cell line [7]; 0.6 nM in the assay with AML-193 cell line [8]. In addition, the EC50 at RARβ was 1 nM; on RXRα [6], 1660 nM.
As to `CC(/C=C/CN1CCCCc2cc3c(cc21)C(C)(C)CCC3(C)C)=C\C(=O)O` [Compound 138b, (2E,4E)-3-Methyl-6-[7,7,10,10-tetramethyl-2,3,4,5,7,8,9,10-octahydronaphtho[2,3-6]azepinyl)hexa-2,4-dienoic acid], the Kd at RARγ is above 1000 nM; at RXRγ, 508 nM; at RXRα [3] it was 136 nM. The EC50 on RARβ is above 10000 nM; at RXRα [6], 422 nM.
As to `CC(/C=C/C=C1/CCOc2cc3c(cc21)C(C)(C)CCC3(C)C)=C\C(=O)O` [Compound 144b], the Kd on RARγ is 494 nM; at RXRγ, 85 nM; at RXRα [3], 59 nM. The IC50 came to 4 nM in the assay with ME 180 cell line [1]; 1000 nM in the assay on AML-193 cell line [2]; 10 nM in the assay with ME 180 cell line [4]; 7.5 nM with RPMI 8226 cell line [5]; 0.6 nM in the assay on RPMI 8226 cell line [7]; 0.6 nM with AML-193 cell line [8]. In the assay on TPA induction of ODC, this molecule displayed an IC80 of 0.6 nM. Further, the EC50 is 3 nM on RARβ and 36 nM at RXRα [6].
